Each structure is given as a SMILES string.

In general, EC50 refers to the midpoint of the concentration-response curve.

The target of one assay is human CB2R (Homo sapiens, UniProt P34972). The assay can be described thus: CB2R mediated modulation of cAMP synthesis. Type of assay: cell-based.
Chain of human CB2R (P34972 whole entry): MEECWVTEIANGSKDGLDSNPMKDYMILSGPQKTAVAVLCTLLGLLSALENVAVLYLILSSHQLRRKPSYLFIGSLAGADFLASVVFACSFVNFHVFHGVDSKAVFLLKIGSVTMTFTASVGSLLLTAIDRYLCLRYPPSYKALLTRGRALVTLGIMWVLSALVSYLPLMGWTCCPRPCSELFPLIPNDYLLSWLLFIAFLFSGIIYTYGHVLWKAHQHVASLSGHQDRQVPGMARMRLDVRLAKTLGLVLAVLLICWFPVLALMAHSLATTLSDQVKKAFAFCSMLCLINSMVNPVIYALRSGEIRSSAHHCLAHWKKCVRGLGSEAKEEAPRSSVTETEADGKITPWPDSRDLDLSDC
Settings: not given
In outline:
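CHO cells expressing human CB2R were treated 30 min at 37° C. with compounds in buffer containing 1 mM IBMX, 0.25% BSA and 10 uM forskolin; cAMP in lysates was measured by DiscoverX-XS kit.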
`CC(C)(C)c1cc(NC(=O)[C@@H]2CCC(=O)N2c2cc(F)c(F)c(F)c2)on1` [(S)-5-Oxo-1-(3,4,5-trifluoro-phenyl)-pyrrolidine-2-carboxylic acid (3-tert-butyl-isoxazol-5-yl)-amide] returned an EC50 of 80 nM.
As to `CC(C)(C)c1cc(NC(=O)[C@@H]2CCCN2C2CC2)on1` [(S)-1-Cyclopropyl-pyrrolidine-2-carboxylic acid (3-tert-butyl-isoxazol-5-yl)-amide], a half-maximal response (EC50) required 3.19 nM.
The molecule `CC(C)(C)c1cc(NC(=O)[C@@H]2CCC(=O)N2c2ncc(C(F)(F)F)cc2F)on1` [(S)-1-(3-Fluoro-5-trifluoromethyl-pyridin-2-yl)-5-oxo-pyrrolidine-2-carboxylic acid (3-tert-butyl-isoxazol-5-yl)-amide] returned an EC50 of 5 nM.
The same measure, in the same setting: under `CC(C)(C)c1nnc(NC(=O)[C@@H]2CCCN2C(=O)N2CCS(=O)(=O)CC2)s1` [(S)-1-(1,1-Dioxo-1l^6-thiomorpholine-4-carbonyl)-pyrrolidine-2-carboxylic acid (5-tert-butyl-1,3,4-thiadiazol-2-yl)-amide] stands 436 nM.
Molecule `CC(C)(C)c1cc(NC(=O)[C@@H]2CCC(=O)N2c2ccc(F)cc2)no1` [(S)-1-(4-fluoro-phenyl)-5-oxo-pyrrolidine-2-carboxylic acid (5-tert-butyl-isoxazol-3-yl)-amide] yielded an EC50 of 35.7 nM.
The same measure, in the same setting: under `CC1CC(NC(=O)[C@@H]2C[C@@H](O)CN2CC2CCOCC2)CC(C)(C)C1` (stereo partly drawn) [(2S,4R)-4-Hydroxy-1-(tetrahydro-pyran-4-ylmethyl)-pyrrolidine-2-carboxylic acid (3,3,5-trimethyl-cyclohexyl)-amide] stands 219 nM; under `CC(C)(C)c1cc(NC(=O)[C@@H]2CCCN2CC2CCCOC2)on1` (stereo partly drawn) [(S)-1-(Tetrahydro-pyran-3-ylmethyl)-pyrrolidine-2-carboxylic acid (3-tert-butyl-isoxazol-5-yl)-amide], 0.376 nM.
The molecule `CC(C)(CO)c1cc(NC(=O)[C@@H]2CCCN2C2CCOCC2)on1` [(S)-1-(tetrahydro-pyran-4-yl)-pyrrolidine-2-carboxylic acid [3-(2-hydroxy-1,1-dimethyl-ethyl)-isoxazol-5-yl]-amide] had an EC50 of 50 nM.
The molecule `CC(C)(C)c1csc(NC(=O)[C@@H]2CCCN2c2ccc(C(F)(F)F)cn2)n1` [(S)-1-(5-Trifluoromethyl-pyridin-2-yl)-pyrrolidine-2-carboxylic acid (4-tert-butyl-thiazol-2-yl)-amide] showed an EC50 of 8.56 nM.
`CCCN1CCC[C@H]1C(=O)Nc1nc(C(C)(C)C)cs1` [Example 187, (S)-1-Propyl-pyrrolidine-2-carboxylic acid (4-tert-butyl-thiazol-2-yl)-amide]: the EC50 turned out to be 159 nM.
`CC(C)(C)c1cc(NC(=O)[C@@H]2CCCN2CC2C=CCCC2)on1` (stereo partly drawn) [(S)-1-Cyclohex-2-enylmethyl-pyrrolidine-2-carboxylic acid (3-tert-butyl-isoxazol-5-yl)-amide] displayed an EC50 of 0.072 nM.
Molecule `CC(C)(C)c1cc(NC(=O)[C@@H]2CCC(=O)N2c2ccc(Cl)c(Cl)c2)no1` [(S)-1-(3,4-Dichloro-phenyl)-5-oxo-pyrrolidine-2-carboxylic acid (5-tert-butyl-isoxazol-3-yl)-amide] came in with an EC50 of 49.7 nM.
The molecule `CC(C)(C)c1cc(NC(=O)[C@@H]2CC(F)(F)CN2C(=O)C2CCC(F)(F)CC2)no1` [(S)-1-(4,4-Difluoro-cyclohexanecarbonyl)-4,4-difluoro-pyrrolidine-2-carboxylic acid (5-tert-butyl-isoxazol-3-yl)-amide] gave an EC50 of 226 nM.
With `CC(C)(C)c1cc(NC(=O)[C@@H]2C[C@H](O)CN2c2ncc(C(F)(F)F)cc2Cl)no1` [(2S,4S)-1-(3-Chloro-5-trifluoromethyl-pyridin-2-yl)-4-hydroxy-pyrrolidine-2-carboxylic acid (5-tert-butyl-isoxazol-3-yl)-amide], the EC50 stood at 1.35 nM.
Take `O=C(Nc1nc(C2CCCCC2)cs1)[C@@H]1CCCN1c1ccc(Cl)cc1` [(S)-1-(4-Chloro-phenyl)-pyrrolidine-2-carboxylic acid (4-cyclohexyl-thiazol-2-yl)-amide]: a half-maximal response (EC50) required 35.5 nM.
As to `CCCc1cc(NC(=O)[C@@H]2CCC(=O)N2c2ccc(Cl)cc2)on1` [(S)-1-(4-Chloro-phenyl)-5-oxo-pyrrolidine-2-carboxylic acid (3-propyl-isoxazol-5-yl)-amide], the EC50 turned out to be 263 nM.
`Cc1ccc(NC(=O)[C@@H]2CCCN2c2ccc(Cl)cc2)nc1` [(S)-1-(4-Chloro-phenyl)-pyrrolidine-2-carboxylic acid (5-methyl-pyridin-2-yl)-amide] gave an EC50 of 120 nM.
For the molecule `CC(C)(C)c1cc(NC(=O)[C@@H]2CCC(=O)N2c2ccc(C#N)c(F)c2)no1` [(S)-1-(4-Cyano-3-fluoro-phenyl)-5-oxo-pyrrolidine-2-carboxylic acid (5-tert-butyl-isoxazol-3-yl)-amide], the EC50 was determined as 78.5 nM.
Take `C[C@@]1(C(=O)Nc2nc(-c3ccccc3)ns2)CCCN1c1ccc(C(F)(F)F)cn1` [(S)-2-Methyl-1-(5-trifluoromethyl-pyridin-2-yl)-pyrrolidine-2-carboxylic acid (3-phenyl-1,2,4-thiadiazol-5-yl)-amide]: it took 0.136 nM to reach a half-maximal effect (EC50).
In turn, `CC(C)N1C[C@@H](O)C[C@H]1C(=O)Nc1cc(C(C)(C)C)no1` [(2S,4S)-4-Hydroxy-1-isopropyl-pyrrolidine-2-carboxylic acid (3-tert-butyl-isoxazol-5-yl)-amide] came in with an EC50 of 421 nM.
In turn, `CC(C)(C)c1cc(NC(=O)[C@@H]2CCC(=O)N2c2cc(F)c(F)c(F)c2)no1` [(S)-5-Oxo-1-(3,4,5-trifluoro-phenyl)-pyrrolidine-2-carboxylic acid (5-tert-butyl-isoxazol-3-yl)-amide] returned an EC50 of 74.7 nM.
On the same count and under the same terms, under `CC(C)(C)c1nc(NC(=O)[C@@H]2C[C@H](O)CN2CC2CCOCC2)sc1C#N` [(2S,4S)-4-Hydroxy-1-(tetrahydro-pyran-4-ylmethyl)-pyrrolidine-2-carboxylic acid (4-tert-butyl-5-cyano-thiazol-2-yl)-amide] stands 380 nM; under `CC(C)(C)c1cc(NC(=O)[C@@H]2CCCN2C2CCC2)on1` [(S)-1-Cyclobutyl-pyrrolidine-2-carboxylic acid (3-tert-butyl-isoxazol-5-yl)-amide], 6.28 nM; under `CC(C)(C)CC(C)(C)NC(=O)[C@@H]1CCCN1c1ccc(Cl)cc1` [(S)-1-(4-Chloro-phenyl)-pyrrolidine-2-carboxylic acid (1,1,3,3-tetramethyl-butyl)-amide], 25.1 nM.
`Cc1cc(N2C(=O)CC[C@H]2C(=O)Nc2cc(C(C)(C)C)on2)ccc1F` [(S)-1-(4-Fluoro-3-methyl-phenyl)-5-oxo-pyrrolidine-2-carboxylic acid (5-tert-butyl-isoxazol-3-yl)-amide]: the response was half-maximal at 362 nM (EC50).
In turn, `CC(C)(C)c1cc(NC(=O)[C@@H]2C[C@@H](O)CN2C2CCOCC2)no1` [(2S,4R)-4-Hydroxy-1-(tetrahydro-pyran-4-yl)-pyrrolidine-2-carboxylic acid (5-tert-butyl-isoxazol-3-yl)-amide] showed an EC50 of 363 nM.
For the molecule `O=C(Nc1ccc(C(F)(F)F)cn1)C1CCCN1c1ccc(C(F)(F)F)cn1` (stereo not shown) [1-(5-Trifluoromethyl-pyridin-2-yl)-pyrrolidine-2-carboxylic acid (5-trifluoromethyl-pyridin-2-yl)-amide], the response was half-maximal at 328 nM (EC50).
`CC(C)(C)c1cc(NC(=O)[C@@H]2CCC(=O)N2c2ccc(C(F)(F)F)cc2)sn1` [(S)-5-Oxo-1-(4-trifluoromethyl-phenyl)-pyrrolidine-2-carboxylic acid (3-tert-butyl-isothiazol-5-yl)-amide] had a 50% effective concentration (EC50) of 112 nM.
Turning to `C[C@@]1(C(=O)Nc2ccc(C(F)(F)F)cn2)CCCN1c1ccc(C(F)(F)F)cn1` [(S)-2-Methyl-1-(5-trifluoromethyl-pyridin-2-yl)-pyrrolidine-2-carboxylic acid (5-trifluoromethyl-pyridin-2-yl)-amide], the EC50 turned out to be 0.634 nM.
On to `O=C(Nc1cccc(C(F)(F)F)n1)[C@@H]1CCCN1c1ccc(Cl)cc1` [(S)-1-(4-Chloro-phenyl)-pyrrolidine-2-carboxylic acid (6-trifluoromethyl-pyridin-2-yl)-amide], for which a half-maximal effect (EC50) was put at 48.8 nM.
The molecule `CC(C)(C)c1cc(NC(=O)[C@@H]2CCCN2C(=O)N2CCS(=O)(=O)CC2)on1` came in with an EC50 of 97.1 nM.
In turn, `CC(C)(C)c1cc(NC(=O)[C@@H]2CCC(=O)N2c2ccc(F)c(Cl)c2)on1` [(S)-1-(3-Chloro-4-fluoro-phenyl)-5-oxo-pyrrolidine-2-carboxylic acid (3-tert-butyl-isoxazol-5-yl)-amide] had an EC50 of 26.7 nM.
`O=C(Nc1ccc(C(F)(F)F)cn1)[C@@H]1CCCN1CC1CCOCC1` [(S)-1-(Tetrahydro-pyran-4-ylmethyl)-pyrrolidine-2-carboxylic acid (5-trifluoromethyl-pyridin-2-yl)-amide] showed an EC50 of 212 nM.
On the same count and under the same terms, the result for `O=C(NC1CCOCC1)[C@@H]1CCCN1c1ccc(Cl)cc1` [(S)-1-(4-Chloro-phenyl)-pyrrolidine-2-carboxylic acid (tetrahydro-pyran-4-yl)-amide] reads 254 nM.
The molecule `CC(C)(C)c1cc(NC(=O)[C@@H]2CCC(=O)N2c2ccc(F)c(Cl)c2)no1` [(S)-1-(3-Chloro-4-fluoro-phenyl)-5-oxo-pyrrolidine-2-carboxylic acid (5-tert-butyl-isoxazol-3-yl)-amide] registered an EC50 of 59.3 nM.
As for `O=C(Nc1ccc(C(F)(F)F)c(F)c1)[C@@H]1CCCN1c1ccc(Cl)cc1` [(S)-1-(4-Chloro-phenyl)-pyrrolidine-2-carboxylic acid (3-fluoro-4-trifluoromethyl-phenyl)-amide], the concentration for a half-maximal effect (EC50) came to 30.4 nM.

Still in this assay, the particulars now being: CHO cells expressing human CB2R; inhibition of forskolin-stimulated cAMP synthesis; mean; read-out: CB2 CAMP @ EC50 nM (mean).
Turning to `O=C(Nc1nc2cc(F)ccc2[nH]1)[C@@H]1CCCN1C1CCOCC1` [(S)-1-(Tetrahydro-pyran-4-yl)-pyrrolidine-2-carboxylic acid (5-fluoro-1H-benzimidazol-2-yl)-amide], the EC50 came out at 391 nM.

Source of the values: patent publication US8629157B2, “Pyrrolidine compounds which modulate the CB2 receptor” (Boehringer Ingelheim International GmbH, priority 2009, dated 2014).
